Results reported in US8586611B2 (priority 2005, dated 2013).

Assays:
Assay type in all cases: in vivo
Plasmopara viticola = experiment: Test B: grape downy mildew, spray 24 h after inoculation (disease rating, 100 = 100% disease control)
Excerpt: (§1) The test compounds were first dissolved in acetone in an amount equal to 3% of the final volume and then suspended at the desired concentration (in ppm) in acetone and purified water (50/50 mix by volume) containing 250 ppm of the surfactant Trem® 014 (polyhydric alcohol esters). The resulting test suspensions were then used in tests A-E. Spraying a 200 ppm test suspension to the point of run-off on the test plants was the equivalent of a rate of 500 g/ha.
Grape seedlings were inoculated with a spore suspension of Plasmopara viticola (the causal agent of grape downy mildew) and incubated in a saturated atmosphere at 20° C. for 24 h. After a short drying period, the test suspension was sprayed to the point of run-off on the grape seedlings and then moved to a growth chamber at 20° C. for 5 days, after which the test units were placed back into a saturated atmosphere at 20° C. for 24 h. Upon removal, disease ratings were made.
(§2) Results for Tests A-F are given in Table A. In the table, a rating of 100 indicates 100% disease control and a rating of 0 indicates no disease control (relative to the controls). A dash (-) indicates no test results.

Phytophthora infestans [1] = experiment: whole plant or invertebrate; details: tomato late blight
Phytophthora infestans [2] = experiment: whole plant or invertebrate; details: tomato late blight; remark: listed apart in the source
[3] = system: Erysiphe graminis f. sp. tritici; experiment: Test E: wheat powdery mildew, spray the day before inoculation (disease rating, 100 = 100% disease control); details: spray the day before inoculation
Excerpt: as §1
The test suspension was sprayed to the point of run-off on wheat seedlings. The following day the seedlings were inoculated with a spore dust of Erysiphe graminis f. sp. tritici, (the causal agent of wheat powdery mildew) and incubated in a growth chamber at 20° C. for 7 days, after which disease ratings were made.
as §2

[4] = spray 24 h after inoculation, compounds without asterisk (not 40 or 10 ppm)
[5] = spray the day before inoculation, compounds without asterisk (not 40 or 10 ppm)
[6] = spray 17 h after inoculation, compounds without asterisk (not 40 or 10 ppm)
[7] = compounds without asterisk (not 40 or 10 ppm)
[8] = spray 24 h after inoculation, tested at 10 ppm
[9] = spray the day before inoculation, tested at 10 ppm
[10] = spray 17 h after inoculation, tested at 10 ppm

| SMILES | Test B disease rating (100 = 100% disease control, 0 = no disease control) (Plasmopara viticola; [4]) | Test C disease rating (100 = 100% disease control, 0 = no disease control) (Phytophthora infestans [1]; [5]) | Test E disease rating (100 = 100% disease control, 0 = no disease control) [3, 7] | further results |
| --- | --- | --- | --- | --- |
| Cc1cccnc1CC(=O)N1CCC(c2nc(C(=O)N(C)[C@@H]3CCCc4ccccc43)cs2)CC1 [compound 204] | 16% | 99% | 0% | Test D disease rating (100 = 100% disease control, 0 = no disease control) (Phytophthora infestans [2]; [6]): 98% |
| Cc1ccc(C)c(CC(=O)N2CCC(c3nc(C(=O)N(C)C4COc5ccccc54)cs3)CC2)c1 (centres unmarked) [compound 138] | 91% | 100% | 44% | Test D disease rating (100 = 100% disease control, 0 = no disease control) (Phytophthora infestans [2]; [6]): 37% |
| Cc1cc(C(F)(F)F)nn1CC(=O)N1CCC(c2nc(C(=O)N(C)C(C)c3ccccc3Cl)cs2)CC1 (centres unmarked) [compound 251] |  |  |  | Test B disease rating (100 = 100% disease control, 0 = no disease control) (Plasmopara viticola; [8]): 100%; Test C disease rating (100 = 100% disease control, 0 = no disease control) (Phytophthora infestans [1]; [9]): 100%; Test D disease rating (100 = 100% disease control, 0 = no disease control) (Phytophthora infestans [2]; [10]): 97%; Test E disease rating (100 = 100% disease control, 0 = no disease control) ([3]; tested at 10 ppm): 0% |
| Cc1ccc(C)c(CC(=O)N2CCC(c3nc(C(=O)N(C)C(C#N)c4ccccc4)cs3)CC2)c1 (centres unmarked) [compound 102] | 100% | 99% | 0% |  |
| Cc1cc(C(F)(F)F)nn1CC(=O)N1CCC(c2nc(C(=O)N(C)C3CSCc4ccccc43)cs2)CC1 (centres unmarked) [compound 185] |  |  |  | Test B disease rating (100 = 100% disease control, 0 = no disease control) (Plasmopara viticola; [8]): 99%; Test C disease rating (100 = 100% disease control, 0 = no disease control) (Phytophthora infestans [1]; [9]): 100%; Test D disease rating (100 = 100% disease control, 0 = no disease control) (Phytophthora infestans [2]; [10]): 98%; Test E disease rating (100 = 100% disease control, 0 = no disease control) ([3]; tested at 10 ppm): 0% |
| CCC(C)c1cc(C)n(CC(=O)N2CCC(c3nc(C(=O)N(C)[C@H](C)c4ccccc4)cs3)CC2)n1 (some centres unmarked) [compound 142] | 0% | 0% | 87% | Test D disease rating (100 = 100% disease control, 0 = no disease control) (Phytophthora infestans [2]; [6]): 0% |
| CC[C@H](c1ccccc1)N(C)C(=O)c1csc(C2CCN(C(=O)Cc3cccc(C(F)(F)F)c3)CC2)n1 [compound 108] | 99% | 100% | 0% |  |
| C=CC(c1ccccc1)N(C)C(=O)c1csc(C2CCN(C(=O)Cc3cc(C)ccc3C)CC2)n1 (centres unmarked) [compound 103] | 100% | 71% | 79% |  |
| CC[C@H](c1ccccc1)N(C)C(=O)c1csc(C2CCN(C(=O)Cc3cccc(Br)c3)CC2)n1 [compound 107] | 99% | 100% | 0% |  |
| Cc1cc(C(F)(F)F)nn1CC(=O)N1CCC(n2nnc(C(=O)N(C)[C@@H]3CCCc4ccccc43)n2)CC1 [compound 256] |  |  |  | Test B disease rating (100 = 100% disease control, 0 = no disease control) (Plasmopara viticola; sprayed 24 h after inoculation, tested at 40 ppm (*)): 99; Test C disease rating (100 = 100% disease control, 0 = no disease control) (Phytophthora infestans [1]; sprayed the day before inoculation, tested at 40 ppm (*)): 100; Test D disease rating (100 = 100% disease control, 0 = no disease control) (Phytophthora infestans [2]; sprayed 17 h after inoculation, tested at 40 ppm (*)): 86 |
| CCN(C(=O)c1csc(C2CCN(C(=O)Cn3nc(C(F)(F)F)cc3C)CC2)n1)[C@H](C)c1ccccc1 [compound 302] |  |  |  | Test B disease rating (100 = 100% disease control, 0 = no disease control) (Plasmopara viticola; sprayed 24 h after inoculation, unmarked compounds (no asterisk, not 40 or 10 ppm)): 86; Test C disease rating (100 = 100% disease control, 0 = no disease control) (Phytophthora infestans [1]; sprayed the day before inoculation, unmarked compounds (no asterisk, not 40 or 10 ppm)): 95; Test D disease rating (100 = 100% disease control, 0 = no disease control) (Phytophthora infestans [2]; sprayed 17 h after inoculation, unmarked compounds (no asterisk, not 40 or 10 ppm)): 26 |
| C=CCC(c1ccccc1)N(C)C(=O)c1csc(C2CCN(C(=O)Cc3cc(C)ccc3C)CC2)n1 (centres unmarked) [compound 104] | 100% | 87% | 0% |  |
